Data from PMC7230911, “Meroterpenoids from the Brown Alga Cystoseira usneoides as Potential Anti-Inflammatory and Lung Anticancer Agents” (Marine Drugs, 2020).

Legend:
[1] = system: IL-1β; assay: IL-1β production in LPS-stimulated THP-1 macrophages (ELISA); type: cell-based; settings: Homo sapiens, 1 h pretreatment, then LPS 1 μg/mL 24 h; for inhibition at 8 µg/mL: 8 μg/mL; for inhibition at 4 µg/mL: 4 μg/mL
Method: (§1) To determine the effects of the AMTs 1–8 on the production of TNF-α, IL-6, and IL-1β, THP-1 macrophaghes were pretreated with the compounds and then stimulated with LPS, as the triggering factor to stimulate the cytokines production. The levels of pro-inflammatory cytokines in the cell supernatants were determined using the enzyme-linked immunosorbent (ELISA) kits.
(§2) Figure 2 Meroterpenoids 1–8 inhibit LPS-induced expression of TNF-α, IL-6, and IL-1β in THP-1 macrophages (A, B, and C) respectively. Cells were pretreated for 1 h with the compounds (1, 2, 3, 4, 7, and 8 at 8 μg/mL; 5 and 6 at 4 μg/mL), followed by 24 h treatment with LPS. TNF-α (A), IL-6 (B) and IL-1β (C) contents in the culture medium were determined by ELISA. Dexametasone (DEX) was used as positive control. Data are expressed as means ± SE from three independent experiments. Statistical significance is indicated (+++p < 0.001 and +++< 0.01 vs. Control; respectively * p < 0.05, ** p < 0.01, *** p < 0.001 vs. Control + LPS).
(§3) THP-1 cells were plated at a density of 3 × 10^5 cells/mL in 24-well plates and incubated with PMA (0.2 μM) for 72 h in a humidified atmosphere of 5% CO2 at 37 °C. The macrophages were pre-treated for 1 h with AMTs 1–8 (8 μg/mL for compounds 1, 2, 3, 4, 7, and 8, and 4 μg/mL for 5 and 6) and then stimulated with lipopolysaccharide (LPS, 1 μg/mL) for another 24 h. Dexamethasone (Dex) was used as positive reference compound at 1 μM. The viability of cells was greater than 95% throughout the experiment. The levels of TNF-α, IL-6, and IL-1ß in supernatants were measured with enzyme-linked immune-sorbent assay (ELISA) kits (Diaclone GEN-PROBE, Besançon cedex, France) according to the manufacturer’s protocols. The absorbance was determined at 450 nm using a microplate reader. To calculate the concentration of cytokines, a standard curve was constructed using serial dilutions of cytokine standards provided with the kit.

[2] = system: human lung adenocarcinoma A549 cells; assay: Cytotoxicity against lung cancer cells A549 (MTT assay); type: cell-based; settings: for IC50 / viability at 50 µg/mL: Homo sapiens, A549, MTT; for IC50: 72 h of treatment, mean ± SE; for Selectivity Index SI: SI = IC50 value for normal cells (MRC-5)/IC50 value for cancer cells (A549); for viability at 50 µg/mL: 50 μg/mL, 72 h, read-out: cell viability of cancer cells
Method: (§4) The effect of the AMTs 1–8 on cell viability was investigated in the human lung cancer cell line A549. […] It has been reported that compounds with SI value higher or equal to 2.0 are potentially selective. […] It is worth noting that after treatment with 50 μg/mL of these two AMTs, the cell viability was lower than 15% for cancer cells and higher than 55% for normal cells.
(§5) Figure 4 Effects of different concentrations of meroterpenoids 1–8 on the viability of human lung cancer cell line A549 and the human fetal lung fibroblastic MRC-5 cells, using MTT assay after 72 h of treatment. Data are mean ±SE of three independent experiments. * p < 0.05, ** p < 0.01 and […] between the two cell lines.
(§6) Cell proliferation was evaluated by a modified MTT assay, which measures the mitochondrial dehydrogenase activity. A total of 5 × 10^3 cells/well (MRC-5 cells) and 3 × 10^3 cells/well (A549 cells) were cultured in a 96-well plate for 24 h. Then, treatments were added to the cell culture. After 72 h of incubation, the medium was removed and 125 µL of MTT (1 mg/mL in medium) was added to each well and incubated for 4 h. Next, 80 µL of 20% sodium dodecyl sulphate (SDS) was added and incubated for 5 h at 37 °C. The optical density of each well was measured at 540 nm (Synergy HT multiwell plate spectrophotometer reader, BioTek Instruments Inc., Winooski, VT, USA) to quantify cell viability. Cell viability (%) was calculated according to the following formula: % viability = (absorbance of compounds treated cells/absorbance of control cells) × 100. The degree of selectivity of the compounds was expressed by its SI value. Each SI value was calculated using the formula: SI = IC50 normal cell/IC50 cancer cell.

[3] = system: IL-6; assay: IL-6 production in LPS-stimulated THP-1 macrophages (ELISA); type: cell-based; settings: Homo sapiens, 1 h pretreatment, then LPS 1 μg/mL 24 h; for inhibition at 8 µg/mL: 8 μg/mL; for inhibition at 4 µg/mL: 4 μg/mL
Method: as §1, §2, §3

[4] = system: THP-1 macrophages; assay: Cell viability of THP-1 macrophages (SRB assay); type: cell-based, human; settings: LPS-stimulated THP-1 macrophages, 0–100 µg/mL, 48 and 72 h, data not shown
Method: The cytotoxic effect of AMTs 1–8 on LPS-stimulated THP-1 macrophages was determined at different concentrations and incubation times (0–100 µg/mL, 48 and 72 h) using the SRB assay. […] Therefore, in order to rule out cytotoxic effects, compounds 1, 2, 3, 4, 7, and 8 were tested on THP-1 cells at maximum concentration of 8 µg/mL while 5 and 6 were tested at maximum concentration of 4 µg/mL. The viability of THP-1 cells was measured by the SRB assay. The cells were seeded in 96-well plates with the growth medium at a density of 1 × 10^4 cells per well, and differentiation into macrophages was induced by 0.2 μM of phorbol myristate acetate (PMA). Three days after differentiation into macrophages, the cells were treated with various concentrations (0, 3.125, 6.25, 12.5, 25, 50, 100 µg/mL) of the AMTs 1–8 in fresh medium and incubated for another 72 h. Then, the cells were fixed with 50 μL of TCA (50%) and processed, as described in the literature.

[5] = system: human fetal lung fibroblastic MRC-5 cells; assay: Cytotoxicity against normal lung cells MRC-5 (MTT assay); type: cell-based; settings: Homo sapiens, MRC5, 72 h of treatment, mean ± SE
Method: as §4, §5, §6

[6] = system: TNF-α; assay: TNF-α production in LPS-stimulated THP-1 macrophages (ELISA); type: cell-based; settings: Homo sapiens, 1 h pretreatment, then LPS 1 μg/mL 24 h; for inhibition at 8 µg/mL: 8 μg/mL; for inhibition at 4 µg/mL: 4 μg/mL
Method: as §1, §2, §3

SMILES: COc1c(C)cc(O)cc1C/C=C(\C)CC(=O)/C=C(/C)CCCC(C)(O)C(=O)/C=C/C(C)(C)O (stereo not drawn) [Compound 1, usneoidone Z]
- inhibition at 8 µg/mL [1]: 74.6%
- IC50 [2]: 8.68 ± 0.15 µg/mL
- Selectivity Index SI [2]: 1.22
- inhibition at 8 µg/mL [3]: 71.2%
- concentration up to which cell viability is not affected [4]: up to 10 µg/mL
- IC50 [5]: 10.6 ± 0.5 µg/mL
- inhibition at 8 µg/mL [6]: 73.1%

SMILES: COc1c(C)cc(O)cc1C/C=C(\C)CC(=O)/C=C(\C)CCCC(C)(O)C(=O)/C=C/C(C)(C)O (stereo not drawn) [Compound 2, 11-hydroxy-1’-O-methylamentadione]
- inhibition at 8 µg/mL [1]: 84.4%
- IC50 [2]: 6.61 ± 0.38 µg/mL
- Selectivity Index SI [2]: 1.30
- inhibition at 8 µg/mL [3]: 80.8%
- concentration up to which cell viability is not affected [4]: up to 10 µg/mL
- IC50 [5]: 8.65 ± 0.18 µg/mL
- inhibition at 8 µg/mL [6]: 64.1%

SMILES: COc1c(C)cc(O)cc1C/C=C(\C)CC(=O)/C=C(\C)CCCC(C)=O [Compound 3, cystomexicone B]
- inhibition at 8 µg/mL [1]: 35.3%
- viability at 50 µg/mL [2]: < 15%
- IC50 [2]: 24.4 ± 1.71 µg/mL
- Selectivity Index SI [2]: 2.12
- inhibition at 8 µg/mL [3]: 69.2%
- concentration up to which cell viability is not affected [4]: up to 10 µg/mL
- IC50 [5]: 51.9 ± 2.76 µg/mL
- inhibition at 8 µg/mL [6]: 57.1%

SMILES: COc1c(C)cc(O)cc1C/C=C(\C)CC(=O)/C=C(/C)CCCC(C)=O [Compound 4, cystomexicone A]
- viability at 50 µg/mL [2]: < 15%
- IC50 [2]: 21 ± 1.79 µg/mL
- Selectivity Index SI [2]: 2.78
- inhibition at 8 µg/mL [3]: 43%
- concentration up to which cell viability is not affected [4]: up to 10 µg/mL
- IC50 [5]: 58.4 ± 3.3 µg/mL
- inhibition at 8 µg/mL [6]: 42.2 to 43.3%

SMILES: COc1c(C)cc(O)cc1C/C=C(\C)CC(=O)/C=C(/C)CCCC(C)C(=O)/C=C/C(C)(C)O (stereo not drawn) [Compound 5, 6-cis-amentadione-1′-methyl ether]
- inhibition at 4 µg/mL [1]: 86%
- IC50 [2]: 4.56 ± 0.21 µg/mL
- Selectivity Index SI [2]: 1.83
- inhibition at 4 µg/mL [3]: 67.8%
- concentration up to which cell viability is not affected [4]: up to 6 µg/mL
- IC50 [5]: 8.39 ± 0.14 µg/mL
- inhibition at 4 µg/mL [6]: 55.3%

SMILES: COc1c(C)cc(O)cc1C/C=C(\C)CC(=O)/C=C(\C)CCCC(C)C(=O)/C=C/C(C)(C)O (stereo not drawn) [Compound 6, amentadione-1′-methyl ether]
- inhibition at 4 µg/mL [1]: 61.1%
- IC50 [2]: 6.19 ± 0.25 µg/mL
- Selectivity Index SI [2]: 1.43
- inhibition at 4 µg/mL [3]: 50.9%
- concentration up to which cell viability is not affected [4]: up to 6 µg/mL
- IC50 [5]: 8.87 ± 0.05 µg/mL
- inhibition at 4 µg/mL [6]: 42.2 to 43.3%

SMILES: COc1c(C)cc(O)cc1/C=C/C(C)(O)CC(=O)/C=C(/C)CCCC(C)C(=O)/C=C/C(C)(C)O (stereo not drawn) [Compound 7, cystodione A]
- inhibition at 8 µg/mL [1]: 44.9%
- IC50 [2]: 9.31 ± 0.33 µg/mL
- Selectivity Index SI [2]: 1.55
- inhibition at 8 µg/mL [3]: 49.6%
- concentration up to which cell viability is not affected [4]: up to 10 µg/mL
- IC50 [5]: 14.5 ± 1.14 µg/mL
- inhibition at 8 µg/mL [6]: 42.2 to 43.3%

SMILES: COc1c(C)cc(O)cc1/C=C/C(C)(O)CC(=O)/C=C(\C)CCCC(C)C(=O)/C=C/C(C)(C)O (stereo not drawn) [Compound 8, cystodione B]
- inhibition at 8 µg/mL [1]: 44.6%
- IC50 [2]: 13.6 ± 0.55 µg/mL
- Selectivity Index SI [2]: 1.28
- inhibition at 8 µg/mL [3]: 58.9%
- concentration up to which cell viability is not affected [4]: up to 10 µg/mL
- IC50 [5]: 17.83 ± 0.09 µg/mL
- inhibition at 8 µg/mL [6]: 52.6%
